According to US20160002204A1 (Board of Regents, The University of Texas System, priority 2014, published 2016):

Columns and labels:
[1] = target: T1, GLS1 (purified recombinant human GAC) (Homo sapiens, UniProt O94925); assay: GLS1 enzymatic activity assay (dual-coupled, Amplex UltraRed/resorufin); type: biochemical
T1 sequence (O94925 55-598 isoform O94925-3 limits assumed): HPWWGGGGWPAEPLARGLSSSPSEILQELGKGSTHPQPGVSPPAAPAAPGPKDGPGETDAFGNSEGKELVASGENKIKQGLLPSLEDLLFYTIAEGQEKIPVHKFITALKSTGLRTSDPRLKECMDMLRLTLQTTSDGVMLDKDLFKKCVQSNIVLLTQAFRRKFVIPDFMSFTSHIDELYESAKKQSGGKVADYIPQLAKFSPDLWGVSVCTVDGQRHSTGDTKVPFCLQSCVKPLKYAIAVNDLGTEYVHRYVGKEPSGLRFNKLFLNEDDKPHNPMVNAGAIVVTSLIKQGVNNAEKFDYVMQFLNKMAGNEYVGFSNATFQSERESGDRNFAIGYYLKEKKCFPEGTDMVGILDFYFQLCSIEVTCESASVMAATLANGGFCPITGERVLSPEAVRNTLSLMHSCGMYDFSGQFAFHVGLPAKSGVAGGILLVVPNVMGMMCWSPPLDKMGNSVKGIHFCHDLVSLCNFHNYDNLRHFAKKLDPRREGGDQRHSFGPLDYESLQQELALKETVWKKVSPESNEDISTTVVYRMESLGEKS
In short: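 GAC activity measured by coupling glutamate to glutamate oxidase and HRP, generating resorufin from Amplex UltraRed. Enzyme (2 nM) preincubated with 50 mM potassium phosphate 10 min at room temperature, then inhibitor 10 min; 1 mM glutamine substrate, 1% DMSO. Fluorescence 530/590 nm, kinetic or 20-min endpoint; IC50 from four-parameter logistic fit.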

A549 cells = assay: A549 proliferation (viability) assay, Cell Titer Fluor, 72 hours; type: cell-based; settings: Homo sapiens
In short: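 A549 cells in RPMI 1640 with 10% dialyzed FBS were seeded at 1000 cells/well, grown 24 h, then exposed to compound (0.5% DMSO final) for 72 h at 37 °C, 5% CO2. Viability was read by Cell Titer Fluor fluorescence; EC50 from four-parameter logistic fit.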

IC50 [1] | EC50 (A549 cells) | SMILES
0.5 to 5 µM | > 5 µM | N#CCC(=O)Nc1ccn(CCC(F)Cn2cc(C(=O)NCc3cccc(OC(F)(F)F)c3)nn2)c(=O)c1 (stereo not shown) [Example 188, 1-{4-[4-(2-cyanoacetamido)-2-oxo-1,2-dihydropyridin-1-yl]-2-fluorobutyl}-N-{[3-(trifluoromethoxy)phenyl]methyl}-1H-1,2,3-triazole-4-carboxamide]
0.1 to 0.5 µM | > 5 µM | Cn1ccnc1CC(=O)Nc1ccn(CCC(F)Cn2cc(C(=O)NCc3cccc(OC(F)(F)F)c3)nn2)c(=O)c1 (stereo not shown) [Example 189, 1-(2-fluoro-4-{4-[2-(1-methyl-1H-imidazol-2-yl)acetamido]-2-oxo-1,2-dihydropyridin-1-yl}butyl)-N-{[3-(trifluoromethoxy)phenyl]methyl}-1H-1,2,3-triazole-4-carboxamide]
< 0.1 µM | 0.5 to 5 µM | O=C(CC1CCCCC1)Nc1ccn(CCCCn2cc(C(=O)NCc3ccccn3)nn2)c(=O)c1 [Example 190, 1-{4-[4-(2-cyclohexylacetamido)-2-oxo-1,2-dihydropyridin-1-yl]butyl}-N-(pyridin-2-ylmethyl)-1H-1,2,3-triazole-4-carboxamide]
< 0.1 µM | 0.1 to 0.5 µM | O=C(CC1CCCCC1)Nc1ccn(CCCCn2cc(C(=O)NCc3cccnc3)nn2)c(=O)c1 [Example 191, 1-{4-[4-(2-cyclohexylacetamido)-2-oxo-1,2-dihydropyridin-1-yl]butyl}-N-(pyridin-3-ylmethyl)-1H-1,2,3-triazole-4-carboxamide]
0.1 to 0.5 µM | > 5 µM | O=C(CC1CCCCC1)Nc1ccn(CCCCn2cc(C(=O)NC(CO)c3ccccc3)nn2)c(=O)c1 (stereo not shown) [Example 192, 1-{4-[4-(2-cyclohexylacetamido)-2-oxo-1,2-dihydropyridin-1-yl]butyl}-N-(2-hydroxy-1-phenylethyl)-1H-1,2,3-triazole-4-carboxamide]
0.1 to 0.5 µM | 0.5 to 5 µM | CC(NC(=O)c1cn(CCCCn2ccc(NC(=O)CC3CCCCC3)cc2=O)nn1)c1cccc(OC(F)(F)F)c1 (stereo not shown) [Example 193, 1-{4-[4-(2-cyclohexylacetamido)-2-oxo-1,2-dihydropyridin-1-yl]butyl}-N-{1-[3-(trifluoromethoxy)phenyl]ethyl}-1H-1,2,3-triazole-4-carboxamide]
< 0.1 µM | < 0.1 µM | O=C(CC1CCCCC1)Nc1ccn(CCCCn2cc(C(=O)NCc3cc(C(F)(F)F)ccn3)nn2)c(=O)c1 [Example 194, 1-{4-[4-(2-cyclohexylacetamido)-2-oxo-1,2-dihydropyridin-1-yl]butyl}-N-{[4-(trifluoromethyl)pyridin-2-yl]methyl}-1H-1,2,3-triazole-4-carboxamide]

More lines, now with the values behind:

SMILES | IC50 [1] | EC50 (A549 cells)
O=C(Cc1ccccc1)Nc1cnn(CCCCn2cc(C(=O)NCc3cccc(OC(F)(F)F)c3)nn2)c(=O)c1 [Example 172, 1-{4-[6-oxo-4-(2-phenylacetamido)-1,6-dihydropyridazin-1-yl]butyl}-N-{[3-(trifluoromethoxy)phenyl]methyl}-1H-1,2,3-triazole-4-carboxamide] | 0.1 to 0.5 µM | 0.5 to 5 µM
O=C(Cc1ccccc1)Nc1ccn(CCCCn2cc(C(=O)NCc3cccc(OC(F)(F)F)c3)nn2)c(=O)c1F [Example 173, 1-{4-[3-fluoro-2-oxo-4-(2-phenylacetamido)-1,2-dihydropyridin-1-yl]butyl}-N-{[3-(trifluoromethoxy)phenyl]methyl}-1H-1,2,3-triazole-4-carboxamide] | < 0.1 µM | < 0.1 µM
O=C(Nc1ccn(CCCCn2cc(C(=O)NCc3cccc(OC(F)(F)F)c3)nn2)c(=O)c1)OC1CCC(F)(F)CC1 [Example 174, 4,4-difluorocyclohexyl N-(2-oxo-1-{4-[4-({[3-(trifluoro-methoxy)phenyl]methyl}carbamoyl)-1H-1,2,3-triazol-1-yl]butyl}-1,2-dihydropyridin-4-yl)carbamate] | < 0.1 µM | 0.1 to 0.5 µM
O=C(CC1CCCCC1)Nc1ccn(CCC(F)Cn2cc(C(=O)NCc3cccc(OC(F)(F)F)c3)nn2)c(=O)c1 (stereo not shown) [Example 175, 1-{4-[4-(2-cyclohexylacetamido)-2-oxo-1,2-dihydropyridin-1-yl]-2-fluorobutyl}-N-{[3-(trifluoromethoxy)phenyl]methyl}-1H-1,2,3-triazole-4-carboxamide] | < 0.1 µM | < 0.1 µM
O=C(CC1CCCCC1)Nc1ccn(CCC(F)Cn2cc(C(=O)NCc3cc(OC(F)(F)F)ccc3F)nn2)c(=O)c1 (stereo not shown) [Example 176, 1-{4-[4-(2-cyclohexylacetamido)-2-oxo-1,2-dihydropyridin-1-yl]-2-fluorobutyl}-N-{[2-fluoro-5-(trifluoromethoxy)phenyl]methyl}-1H-1,2,3-triazole-4-carboxamide] | < 0.1 µM | < 0.1 µM
Cc1ccc(CNC(=O)c2cn(CC(F)CCn3ccc(NC(=O)CC4CCCCC4)cc3=O)nn2)cn1 (stereo not shown) [Example 177, 1-{4-[4-(2-cyclohexylacetamido)-2-oxo-1,2-dihydropyridin-1-yl]-2-fluorobutyl}-N-[(6-methylpyridin-3-yl)methyl]-1H-1,2,3-triazole-4-carboxamide] | < 0.1 µM | < 0.1 µM
O=C(CC1CCCCC1)Nc1ccn(CCC(F)Cn2cc(C(=O)NCc3cc(C(F)(F)F)ccn3)nn2)c(=O)c1 (stereo not shown) [Example 178, 1-{4-[4-(2-cyclohexylacetamido)-2-oxo-1,2-dihydropyridin-1-yl]-2-fluorobutyl}-N-{[4-(trifluoromethyl)pyridin-2-yl]methyl}-1H-1,2,3-triazole-4-carboxamide] | < 0.1 µM | < 0.1 µM
O=C(CC1CCS(=O)(=O)CC1)Nc1ccn(CCCCn2cc(C(=O)NCc3cccc(OC(F)(F)F)c3)nn2)c(=O)c1 [Example 179, 1-(4-{4-[2-(1,1-dioxo-1$l^6-thian-4-yl)acetamido]-2-oxo-1,2-dihydropyridin-1-yl}butyl)-N-{[3-(trifluoromethoxy)phenyl]methyl}-1H-1,2,3-triazole-4-carboxamide] | < 0.1 µM | 0.5 to 5 µM
O=C(Cc1ccccc1)Nc1ccn(CCC(F)Cn2cc(C(=O)NCc3cccc(OC(F)(F)F)c3)nn2)c(=O)c1F (stereo not shown) [Example 180] | < 0.1 µM | < 0.1 µM
O=C(CC1CCCCC1)Nc1ccn(CCCCn2cc(C(=O)NCc3cc(Cl)ccc3F)nn2)c(=O)c1 [Example 181, N-[(5-chloro-2-fluorophenyl)methyl]-1-{4-[4-(2-cyclohexylacetamido)-2-oxo-1,2-dihydropyridin-1-yl]butyl}-1H-1,2,3-triazole-4-carboxamide] | < 0.1 µM | 0.1 to 0.5 µM
O=C(Cc1ccccn1)Nc1ccn(CCC(F)Cn2cc(C(=O)NCc3cc(OC(F)(F)F)ccc3F)nn2)c(=O)c1 (stereo not shown) [Example 182, 1-(2-fluoro-4-{2-oxo-4-[2-(pyridin-2-yl)acetamido]-1,2-dihydropyridin-1-yl}butyl)-N-{[2-fluoro-5-(trifluoromethoxy)phenyl]methyl}-1H-1,2,3-triazole-4-carboxamide] | < 0.1 µM | 0.1 to 0.5 µM
O=C(Cc1ccccn1)Nc1ccn(CCC(F)Cn2cc(C(=O)NCc3cccc(C(F)(F)F)c3)nn2)c(=O)c1 (stereo not shown) [Example 183, 1-(2-fluoro-4-{2-oxo-4-[2-(pyridin-2-yl)acetamido]-1,2-dihydropyridin-1-yl}butyl)-N-{[3-(trifluoromethyl)phenyl]methyl}-1H-1,2,3-triazole-4-carboxamide] | < 0.1 µM | 0.5 to 5 µM
CO[C@H](C(=O)Nc1ccn(CCC(F)Cn2cc(C(=O)NCc3cccc(OC(F)(F)F)c3)nn2)c(=O)c1)c1ccccc1 (stereo partly drawn) [Example 184, 1-(2-fluoro-4-{4-[(2S)-2-methoxy-2-phenylacetamido]-2-oxo-1,2-dihydropyridin-1-yl}butyl)-N-{[3-(trifluoromethoxy)phenyl]methyl}-1H-1,2,3-triazole-4-carboxamide] | < 0.1 µM | < 0.1 µM
COCCOc1cccc(CC(=O)Nc2ccn(CCC(F)Cn3cc(C(=O)NCc4cccc(OC(F)(F)F)c4)nn3)c(=O)c2)c1 (stereo not shown) [Example 185, 1-[2-fluoro-4-(4-{2-[3-(2-methoxyethoxy)phenyl]acetamido}-2-oxo-1,2-dihydropyridin-1-yl)butyl]-N-{[3-(trifluoromethoxy)phenyl]methyl}-1H-1,2,3-triazole-4-carboxamide] | < 0.1 µM | 0.5 to 5 µM
CO[C@@H](C(=O)Nc1ccn(CCC(F)Cn2cc(C(=O)NCc3cccc(OC(F)(F)F)c3)nn2)c(=O)c1)c1ccccc1 (stereo partly drawn) [Example 186, 1-(2-fluoro-4-{4-[(2R)-2-methoxy-2-phenylacetamido]-2-oxo-1,2-dihydropyridin-1-yl}butyl)-N-{[3-(trifluoromethoxy)phenyl]methyl}-1H-1,2,3-triazole-4-carboxamide] | < 0.1 µM | < 0.1 µM
O=C(CC1CCCCO1)Nc1ccn(CCC(F)Cn2cc(C(=O)NCc3cccc(OC(F)(F)F)c3)nn2)c(=O)c1 (stereo not shown) [Example 187, 1-(2-fluoro-4-{4-[2-(oxan-2-yl)acetamido]-2-oxo-1,2-dihydropyridin-1-yl}butyl)-N-{[3-(trifluoromethoxy)phenyl]methyl}-1H-1,2,3-triazole-4-carboxamide] | < 0.1 µM | < 0.1 µM
